# Assay results as given in US20080161344A1, “Melanin Concentrating Hormone Receptor Ligands: Substituted Tetrahydroisoquinoline Analogues” (priority 2004, published 2008).
# Biological target: MCH receptor (MCH1) (Macaca fascicularis, UniProt A0A2K5VT41)
# Test: Melanin concentrating hormone receptor binding assay (125I-Tyr MCH competition, membranes of transfected HEK293 cells)
# Parameters: species or system Cynomolgus macaque
# Conditions: not given
# Description: This Example illustrates a standard assay of melanin concentrating hormone receptor binding that may be used to determine the binding affinity of compounds for the MCH receptor.
# Cynomolgus macaque hypothalamus MCH1 cDNA is prepared and cloned into PCDNA3.1 (INVITROGEN Corp., Carlsbad, Calif.), and HEK293 cells (American Type Culture Collection, Manassas, Va.) are stably transfected with the MCH1 expression vector as described in PCT International Application publication number WO/03/059289, which published on Jul. 24, 2003. The disclosure of WO 03/059289 at page 52 directed to the preparation and storage of the transfected HEK293 cells is hereby incorporated by reference.
# At the time of assay, pellets are thawed by addition of wash buffer (25 mM Hepes with 1.0 mM CaCl2, 5.0 mM MgCl2, 120 mM NaCl, pH 7.4) and homogenized for 30 seconds using a BRINKMAN POLYTRON, setting 5. Cells are centrifuged for 10 minutes at 48,000×g. The supernatant is discarded and the pellet is resuspended in fresh wash buffer, and homogenized again. An aliquot of this membrane homogenate is used to determine protein concentration via the Bradford method (BIO-RAD Protein Assay Kit, #500-0001, BIO-RAD, Hercules, Calif.). By this measure, a 1-liter culture of cells typically yields 50-75 mg of total membrane protein. The homogenate is centrifuged as before and resuspended to a protein concentration of 333 μg/mL in binding buffer (Wash buffer+0.1% BSA and 1.0 μM final phosphoramidon) for an assay volume of 50 μg membrane protein/150 μl binding buffer. Phosphoramidon was from SIGMA BIOCHEMICALS, St. Louis, Mo. (cat# R-7385).
# Competition binding assays are performed at room temperature in Falcon 96 well round bottom polypropylene plates. Each assay well contains 150 μL of MCH receptor-containing membranes described above, 50 μL ^125I-Tyr MCH, 50 μL binding buffer, and 2 μL test compound in DMSO. ^125I-Tyr MCH (specific activity=2200 Ci/mmol) is purchased from NEN (Boston, Mass.) and is diluted in binding buffer to provide a final assay concentration of 30 pM.
# Non-specific binding is defined as the binding measured in the presence of 1 μM unlabeled MCH. MCH is purchased from BACHEM U.S.A., King of Prussia, Pa. (cat #H-1482). Assay wells used to determine MCH binding contain 150 μL of MCH receptor containing membranes, 50 μL ^125I-Tyr MCH, 25 μL binding buffer and 25 μL binding buffer.
# Assay plates are incubated for 1 hour at room temperature. Membranes are harvested onto WALLAC™ glass fiber filters (PERKIN-ELMER, Gaithersburg, Md.) which were pre-soaked with 1.0% PEI (polyethyleneimine) for 2 hours prior to use. Filters are allowed to dry overnight, and then counted in a WALLAC 1205 BETA PLATE counter after addition of WALLAC BETA SCINT™ scintillation fluid.
# For saturation binding, the concentration of ^125I-Tyr MCH is varied from 7 to 1,000 pM. Typically, 11 concentration points are collected per saturation binding curve. Equilibrium binding parameters are determined by fitting the allosteric Hill equation to the measured values with the aid of the computer program FitP™ (BIOSOFT, Ferguson, Mo.).
# MCH receptor (MCH1), sequence (A0A2K5VT41 entry or part of it): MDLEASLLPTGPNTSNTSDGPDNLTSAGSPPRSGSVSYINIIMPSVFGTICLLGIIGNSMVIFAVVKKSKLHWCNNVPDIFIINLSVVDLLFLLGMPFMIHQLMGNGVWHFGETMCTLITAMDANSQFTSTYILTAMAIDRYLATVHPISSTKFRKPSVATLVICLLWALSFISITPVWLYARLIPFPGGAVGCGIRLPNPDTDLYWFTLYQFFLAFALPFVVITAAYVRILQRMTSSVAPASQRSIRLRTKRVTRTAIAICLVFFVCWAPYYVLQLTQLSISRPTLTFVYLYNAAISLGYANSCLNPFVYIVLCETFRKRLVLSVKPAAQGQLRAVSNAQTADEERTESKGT
row,Structure (SMILES),Ki [µM]
1,"COc1cc2c(cc1OC)CN(Cc1cccc(Oc3ccc(C(C)(C)C)cc3)c1)CC2 [Compound 1, 2-[3-(4-tert-Butyl-phenoxy)-benzyl]-6,7-dimethoxy-1,2,3,4-tetrahydroisoquinoline]",< 1
2,"COc1cc2c(cc1OC)CN(Cc1cccc(Oc3ccc(C)cc3)c1)CC2 [Compound 3, 6,7-dimethoxy-2-(3-p-tolyloxy-benzyl)-1,2,3,4-tetrahydroisoquinoline]",< 1
3,"COc1cc2c(cc1OC)CN(Cc1ccnc(Oc3ccc(C(C)(C)C)cc3)c1)CC2 [Compound 5, 2-[2-(4-tert-Butyl-phenoxy)-pyridin-4-ylmethyl]-6,7-dimethoxy-1,2,3,4-tetrahydroisoquinoline]",< 1

# Same assay, conditions: MCH receptor binding assay of Example 2; class symbol; read-out: Ki
row,Structure (SMILES),Ki [µM]
1,"COc1cc2c(cc1OC)CN(Cc1cccc(Cc3ccccc3)c1)CC2 [Compound 10, 2-(3-Benzyl-benzyl)-6,7-dimethoxy-1,2,3,4-tetrahydroisoquinoline]",< 1
2,"COc1cc2c(cc1OC)CN(Cc1ccnc(Oc3ccc(C(C)C)cc3)c1)CC2 [Compound 19, 2-[2-(4-Isopropyl-phenoxy)-pyridin-4-ylmethyl]-6,7-dimethoxy-1,2,3,4-tetrahydroisoquinoline]",< 1
3,"COc1cc2c(cc1OC)CN(Cc1cccc(Oc3ccc(Cl)cc3)c1)CC2 [Compound 21, 2-[3-(4-Chloro-phenoxy)-benzyl]-6,7-dimethoxy-1,2,3,4-tetrahydroisoquinoline]",< 1
4,"CCOc1ccc(Oc2cccc(CN3CCc4cc(OC)c(OC)cc4C3)c2)cc1 [Compound 22, 2-[3-(4-Ethoxy-phenoxy)-benzyl]-6,7-dimethoxy-1,2,3,4-tetrahydroisoquinoline]",< 1
5,"COc1cc2c(cc1OC)CN(Cc1cccc(Oc3ccc(C(C)C)cc3)c1)CC2 [Compound 23, 2-[3-(4-Isopropyl-phenoxy)-benzyl]-6,7-dimethoxy-1,2,3,4-tetrahydroisoquinoline]",< 1
6,"CCOc1cc2c(cc1OCC)CN(Cc1cccc(Oc3ccc(C(C)(C)C)cc3)c1)CC2 [Compound 26, 2-[3-(4-tert-Butyl-phenoxy)-benzyl]-6,7-diethoxy-1,2,3,4-tetrahydroisoquinoline]",< 1
7,"CCOc1cc2c(cc1OC)CN(Cc1cccc(Oc3ccc(C(C)(C)C)cc3)c1)CC2 [Compound 29, 2-[3-(4-tert-Butyl-phenoxy)-benzyl]-6-ethoxy-7-methoxy-1,2,3,4-tetrahydroisoquinoline]",< 1
8,"CCOc1cc2c(cc1OC)CCN(Cc1cccc(Oc3ccc(C(C)(C)C)cc3)c1)C2 [Compound 31, 2-[3-(4-tert-Butyl-phenoxy)-benzyl]-7-ethoxy-6-methoxy-1,2,3,4-tetrahydroisoquinoline]",< 1
9,"COc1cc2c(cc1OC)CN(Cc1cccc(Oc3ccc(C(C)(C)C)cc3)n1)CC2 [Compound 34, 2-[6-(4-tert-Butyl-phenoxy)-pyridin-2-ylmethyl]-6,7-dimethoxy-1,2,3,4-tetrahydroisoquinoline]",< 1
10,"COc1cc2c(cc1OC)CN(Cc1cccc(Oc3ccc(C#N)cc3)c1)CC2 [Compound 42, 4-[3-(6,7-Dimethoxy-3,4-dihydro-1H-isoquinolin-2-ylmethyl)-phenoxy]-benzonitrile]",< 1
11,"COc1cc2c(cc1OC)CN(Cc1cccc(Oc3ccccc3)c1)CC2 [Compound 43, 6,7-Dimethoxy-2-(3-phenoxy-benzyl)-1,2,3,4-tetrahydroisoquinoline]",< 1
12,"COc1ccc(Oc2cccc(CN3CCc4cc(OC)c(OC)cc4C3)c2)cc1 [Compound 47, 6,7-Dimethoxy-2-[3-(4-methoxy-phenoxy)-benzyl]-1,2,3,4-tetrahydroisoquinoline]",< 1
13,"COc1cc2c(cc1OC)CN(Cc1cccc(Oc3ccc(OC(F)(F)F)cc3)c1)CC2 [Compound 49, 6,7-Dimethoxy-2-[3-(4-trifluoromethoxy-phenoxy)-benzyl]-1,2,3,4-tetrahydroisoquinoline]",< 1
14,"COc1cc2c(cc1OC)CN(Cc1cccc(Oc3ccc(C(F)(F)F)cc3)c1)CC2 [Compound 50, 6,7-Dimethoxy-2-[3-(4-trifluoromethyl-phenoxy)-benzyl]-1,2,3,4-tetrahydroisoquinoline]",< 1
15,"CC(C)(C)c1ccc(Oc2cccc(CN3CCc4cc5c(cc4C3)OCO5)c2)cc1 [Compound 52, 6-[3-(4-tert-Butyl-phenoxy)-benzyl]-5,6,7,8-tetrahydro-[1,3]dioxolo[4,5-g]isoquinoline]",< 1
16,"CCOc1cc2c(cc1OC)CCN(Cc1ccnc(Oc3ccc(C(C)C)cc3)c1)C2 [Compound 53, 7-Ethoxy-2-[2-(4-isopropyl-phenoxy)-pyridin-4-ylmethyl]-6-methoxy-1,2,3,4-tetrahydroisoquinoline]",< 1
